# Assays:
# [1] = Plasma pharmacokinetic analysis; assay type: in vivo, dog; conditions: EC0347 in plasma after single EC0531 0.28 mg/kg IV
# Method: Plasma pharmacokinetic analysis was conducted in six dogs sequentially enrolled in the trial. Blood was collected at 0, 2, 10, and 30 minutes, and at 1, 2, 8, and 24 hours after treatment.
# Tubes were centrifuged, and plasma collected and stored at –80° C.
# For the analysis of EC0531 concentrations in plasma, the EC0531 was extracted from 100 µL of dog plasma by 96-well solid phase extraction (SPE). Internal standard was added to all samples prior to extraction using a Strata X-A SPE plate (Phenomenex, Torrance, CA, USA). The eluate was collected, evaporated, and finally reconstituted with 85/15 water/acetonitrile with 40 mM mannitol. The extracted samples were injected into a UPLC/MS/MS system (Waters, Milford, MA, USA) using a BEH C18 reverse phase column (Waters) implementing a mobile phase gradient. Incurred sample concentrations were then back-calculated against a calibration curve prepared in blank dog plasma.
# Internal standard was added to all samples prior to extraction using a 200 µL SLE+ plate (Biotage, Charlotte, NC, USA). The eluate was collected, evaporated, and reconstituted with acetone prior to sealing and heating the collection plate for 1 hour. After incubation, the extracts were again evaporated and finally reconstituted prior to injection. The extracted samples were injected into a UPLC/MS/MS system (Waters) using a BEH shield RP18 reverse phase column (Waters) and eluted under isocratic conditions. […] Incurred sample concentrations were then back-calculated against a calibration curve prepared in blank dog plasma. […] Samples were homogenized in buffer with a bead beater, or hand held homogenizer. Aliquots (100 µL) of each sample were spiked with 400 µL internal standards in acetone. The extracts were sealed and incubated at 55° C for 1 hour. The extracts were then evaporated to remove acetone, and reconstituted. Finally, reconstituted samples were analyzed by injection into a UPLC-MS/MS system (Waters) to evaluate concentrations of EC0531 and metabolites against a prepared calibration curve.
# [2] = test system: U.S. National Cancer Institute 60 tumor cell lines; set-up: method as in PMID 16489930; conditions: percent of cell lines tested; cited from earlier work
# [3] = test system: tumor xenograft mouse model; conditions: free drug; before effective anti-tumor activity could be observed; cited from earlier work
# canine iUC = conditions: randomized trial in dogs with iUC; cited from earlier work
smiles,measurement,setting,value
CCCC(=O)OCN(C(=O)[C@@H](NC(=O)[C@H]1CCCCN1C)C(C)CC)[C@H](C[C@@H](OC(C)=O)c1nc(C(=O)N[C@@H](Cc2ccc(O)cc2)C[C@H](C)C(=O)NN)cs1)C(C)C (stereo partly drawn) [EC0347],"Cmax, EC0347 (free drug)",[1]; Avg of six dogs,2.3 ng/mL
same,"Tmax, EC0347 (free drug)",[1]; Avg of six dogs,12.0 min
same,"Tmax, EC0347 (free drug)",[1]; individual dogs #1-6 (c0),10.0 min
CC[C@H](C)[C@H](NC(=O)[C@H]1CCCCN1C)C(=O)N(COC(=O)CC(C)C)[C@H](C[C@@H](OC(C)=O)c1nc(C(=O)N[C@@H](Cc2ccc(O)cc2)C[C@H](C)C(=O)O)cs1)C(C)C [tubulysin A],cell lines with growth inhibition,[2],33%
"CC[C@]1(O)C[C@@H]2CN(CCc3c([nH]c4ccccc34)[C@@](C(=O)OC)(c3cc4c(cc3OC)N(C)[C@H]3[C@@](O)(C(=O)NN)[C@H](O)[C@]5(CC)C=CCN6CC[C@]43[C@@H]65)C2)C1 [DAVLBH, desacetylvinblastine monohydrazide]",toxicity in tumor xenograft mouse model,[3],unacceptable toxicity
CC[C@]1(O)C[C@@H]2CN(CCc3c([nH]c4ccccc34)[C@@](C(=O)OC)(c3cc4c(cc3OC)N(C)[C@H]3[C@@](O)(C(=O)OC)[C@H](OC(C)=O)[C@]5(CC)C=CCN6CC[C@]43[C@@H]65)C2)C1 [vinblastine],"PR, percent of dogs",canine iUC,22%

# Source: paper PMC6319348, “Phase I/II clinical trial of the targeted chemotherapeutic drug, folate-tubulysin, in dogs with naturally-occurring invasive urothelial carcinoma” (Oncotarget, 2018)
